Experimental data: article PMC6150240, “Synthesis and 2D-QSAR Study of Active Benzofuran-Based Vasodilators” (Molecules : A Journal of Synthetic Chemistry and Natural …, 2017)
Read-outs that look alike come from different tables or passages of the source.

Key:
[1] = tested on: isolated thoracic aortic rings of male Wistar rats; assay: Vasodilation activity screening: isolated thoracic aortic rings pre-contracted with norepinephrine hydrochloride; conditions: Rattus norvegicus
Protocol: The vasodilation activity screening procedures were carried out according to the standard reported techniques by testing the effects of the synthesized 2-alkoxy-4-aryl-6-(benzofuran-2-yl)-3-pyridinecarbonitriles 4a–x on isolated thoracic aortic rings of male Wistar rats (250–350 g). After light ether anesthesia, the rats were sacrificed by cervical dislocation. The aortae were immediately excised, freed of extraneous tissues and prepared for isometric tension recording. Aorta was cut into (3–5 mm width) rings and each ring was placed in a vertical chamber “10 mL jacketed automatic multi-chamber organ bath system (Model no. ML870B6/C, Panlab, Spain)” filled with Krebs solution composed of (in mM): NaCl, 118.0; KCl, 4.7; NaHCO3, 25.0; CaCl2, 1.8; NaH2PO4, 1.2; MgSO4, 1.2; glucose, 11.0 and oxygenated with carbogen gas (95% O2/5% CO2) at 37 ± 0.5 °C. Each aortic ring was mounted between two stainless steel hooks passed through its lumen. The lower hook was fixed between two plates, while the upper one was attached to a force displacement transducer (Model no. MLT0201, Panlab, Spain) connected to an amplifier (PowerLab, AD Instruments Pty., Ltd. Victoria, Australia), which is connected to a computer. The chart for Windows (v 3.4) software was used to record and elaborate data. Preparations were stabilized under 2 g resting tension during 2 h and then the contracture response to norepinephrine hydrochloride (10^−6 M) was measured before and after exposure to increasing concentrations of the tested synthesized compounds. The tested compounds were dissolved in dimethylsulfoxide (DMSO) as stock solution (10 mL of 0.005 M). […] This experiment was carried out in according to recommendations in the Guide for the Care and Use of Laboratory Animals of the National Institutes of Health (NIH publication No. 85–23, revised 1996) and under regulations of the Animal Care and Use of National Research Centre in Egypt.

[2] = norepinephrine hydrochloride 10^−6 M, three replicates, read-out: Potency (IC50), concentration necessary for 50% reduction of maximal norepinephrine hydrochloride induced contracture
[3] = norepinephrine hydrochloride induced contracture, observed values as used in the QSAR, read-out: Observed IC50

IC50 [1, 2] | IC50 [1, 3] | melting point | SMILES
370 µM | 370 µM | 204 to 206 °C | CCOc1nc(-c2ccccn2)cc(-c2cn(-c3ccccc3)nc2-c2cc3ccccc3o2)c1C#N [Compound 4v, 4-(3-(Benzofuran-2-yl)-1-phenyl-1H-pyrazol-4-yl)-2-ethoxy-6-(pyridin-2-yl)pyridine-3-carbonitrile]
298 µM | 400 µM |  | CCOc1nc(-c2cccs2)cc(-c2cn(-c3ccccc3)nc2-c2cc3ccccc3o2)c1C#N [Compound 4t, 4-(3-(Benzofuran-2-yl)-1-phenyl-1H-pyrazol-4-yl)-2-ethoxy-6-(thiophen-2-yl)pyridine-3-carbonitrile]
400 µM | 298 µM | 208 to 210 °C | CCOc1nc(-c2ccc[nH]2)cc(-c2cn(-c3ccccc3)nc2-c2cc3ccccc3o2)c1C#N [Compound 4p, 4-(3-(Benzofuran-2-yl)-1-phenyl-1H-pyrazol-4-yl)-2-ethoxy-6-(1H-pyrrol-2-yl)pyridine-3-carbonitrile]
254 µM | 254 µM |  | CCOc1nc(-c2ccco2)cc(-c2cn(-c3ccccc3)nc2-c2cc3ccccc3o2)c1C#N [Compound 4r, 4-(3-(Benzofuran-2-yl)-1-phenyl-1H-pyrazol-4-yl)-2-ethoxy-6-(furan-2-yl)pyridine-3-carbonitrile]
299 µM | 299 µM |  | CCOc1nc(-c2nc3ccccc3n2C)cc(-c2cn(-c3ccccc3)nc2-c2cc3ccccc3o2)c1C#N [Compound 4x, 4-(3-(Benzofuran-2-yl)-1-phenyl-1H-pyrazol-4-yl)-2-ethoxy-6-(1-methyl-1H-benzo[d]-imidazol-2-yl)pyridine-3-carbonitrile]
223 µM | 223 µM |  | COc1nc(-c2nc3ccccc3n2C)cc(-c2cn(-c3ccccc3)nc2-c2cc3ccccc3o2)c1C#N [Compound 4w, 4-(3-(Benzofuran-2-yl)-1-phenyl-1H-pyrazol-4-yl)-2-methoxy-6-(1-methyl-1H-benzo[d]imidazole-2-yl)pyridine-3-carbonitrile]
321 µM | 321 µM | 246 to 248 °C | COc1nc(-c2ccco2)cc(-c2cn(-c3ccccc3)nc2-c2cc3ccccc3o2)c1C#N [Compound 4q, 4-(3-(Benzofuran-2-yl)-1-phenyl-1H-pyrazol-4-yl)-6-(furan-2-yl)-2-methoxypyridine-3-carbonitrile]
291 µM | 291 µM |  | CCOc1nc(-c2ccc(OC)cc2)cc(-c2cn(-c3ccccc3)nc2-c2cc3ccccc3o2)c1C#N [Compound 4l, 4-(3-(Benzofuran-2-yl)-1-phenyl-1H-pyrazol-4-yl)-2-ethoxy-6-(4-methoxyphenyl)pyridine-3-carbonitrile]
337 µM | 337 µM | 213 to 215 °C | CCOc1nc(-c2ccc3c(c2)CCCC3)cc(-c2cn(-c3ccccc3)nc2-c2cc3ccccc3o2)c1C#N [Compound 4n, 4-(3-(Benzofuran-2-yl)-1-phenyl-1H-pyrazol-4-yl)-2-ethoxy-6-(1,2,3,4-tetrahydronaphthalen-6-yl)pyridine-3-carbonitrile]
286 µM | 286 µM |  | COc1nc(-c2ccc3c(c2)CCCC3)cc(-c2cn(-c3ccccc3)nc2-c2cc3ccccc3o2)c1C#N [Compound 4m, 4-(3-(Benzofuran-2-yl)-1-phenyl-1H-pyrazol-4-yl)-6-(1,2,3,4-tetrahydronaphthalen-6-yl)-2-methoxypyridine-3-carbonitrile]
333 µM | 333 µM | 275 to 277 °C | COc1nc(-c2ccccn2)cc(-c2cn(-c3ccccc3)nc2-c2cc3ccccc3o2)c1C#N [Compound 4u, 4-(3-(Benzofuran-2-yl)-1-phenyl-1H-pyrazol-4-yl)-2-methoxy-6-(pyridin-2-yl)pyridine-3-carbonitrile]
356 µM |  | 187 to 189 °C | COc1nc(-c2ccc[nH]2)cc(-c2cn(-c3ccccc3)nc2-c2cc3ccccc3o2)c1C#N [Compound 4o, 4-(3-(Benzofuran-2-yl)-1-phenyl-1H-pyrazol-4-yl)-2-methoxy-6-(1H-pyrrol-2-yl)pyridine-3-carbonitrile]
268 µM |  |  | COc1nc(-c2cccs2)cc(-c2cn(-c3ccccc3)nc2-c2cc3ccccc3o2)c1C#N [Compound 4s, 4-(3-(Benzofuran-2-yl)-1-phenyl-1H-pyrazol-4-yl)-2-methoxy-6-(thiophen-2-yl)pyridine-3-carbonitrile]

More lines, now with the values behind:

SMILES | IC50 [1, 2] | IC50 [1, 3] | melting point
COc1nc(-c2ccc(Br)cc2)cc(-c2cn(-c3ccccc3)nc2-c2cc3ccccc3o2)c1C#N [Compound 4e, 4-(3-(Benzofuran-2-yl)-1-phenyl-1H-pyrazol-4-yl)-6-(4-bromophenyl)-2-methoxypyridine-3-carbonitrile] | 253 µM | 253 µM | 
CCOc1nc(-c2ccc(Cl)cc2)cc(-c2cn(-c3ccccc3)nc2-c2cc3ccccc3o2)c1C#N [Compound 4d, 4-(3-(Benzofuran-2-yl)-1-phenyl-1H-pyrazol-4-yl)-6-(4-chlorophenyl)-2-ethoxypyridine-3-carbonitrile] | 397 µM | 397 µM | 199 to 201 °C
COc1nc(-c2ccc(C)cc2)cc(-c2cn(-c3ccccc3)nc2-c2cc3ccccc3o2)c1C#N [Compound 4i, 4-(3-(Benzofuran-2-yl)-1-phenyl-1H-pyrazol-4-yl)-2-methoxy-6-p-tolylpyridine-3-carbonitrile] | 330 µM | 330 µM | 258 to 260 °C
CCOc1nc(-c2ccc(C)cc2)cc(-c2cn(-c3ccccc3)nc2-c2cc3ccccc3o2)c1C#N [Compound 4j, 4-(3-(Benzofuran-2-yl)-1-phenyl-1H-pyrazol-4-yl)-2-ethoxy-6-p-tolylpyridine-3-carbonitrile] | 452 µM | 452 µM | 202 to 204 °C
CCOc1nc(-c2ccc(F)cc2)cc(-c2cn(-c3ccccc3)nc2-c2cc3ccccc3o2)c1C#N [Compound 4h, 4-(3-(Benzofuran-2-yl)-1-phenyl-1H-pyrazol-4-yl)-2-ethoxy-6-(4-fluorophenyl)pyridine-3-carbonitrile] | 330 µM | 330 µM | 204 to 206 °C
COc1nc(-c2ccc(Cl)cc2)cc(-c2cn(-c3ccccc3)nc2-c2cc3ccccc3o2)c1C#N [Compound 4c, 4-(3-(Benzofuran-2-yl)-1-phenyl-1H-pyrazol-4-yl)-6-(4-chlorophenyl)-2-methoxypyridine-3-carbonitrile] | 295 µM | 295 µM | 
COc1nc(-c2ccc(F)cc2)cc(-c2cn(-c3ccccc3)nc2-c2cc3ccccc3o2)c1C#N [Compound 4g, 4-(3-(benzofuran-2-yl)-1-phenyl-1H-pyrazol-4-yl)-6-(4-fluorophenyl)-2-methoxypyridine-3-carbonitrile] | 275 µM | 275 µM | 
CCOc1nc(-c2ccc(Br)cc2)cc(-c2cn(-c3ccccc3)nc2-c2cc3ccccc3o2)c1C#N [Compound 4f, 4-(3-(Benzofuran-2-yl)-1-phenyl-1H-pyrazol-4-yl)-6-(4-bromophenyl)-2-ethoxypyridine-3-carbonitrile] | 267 µM | 267 µM | 
COc1ccc(-c2cc(-c3cn(-c4ccccc4)nc3-c3cc4ccccc4o3)c(C#N)c(OC)n2)cc1 [Compound 4k, 4-(3-(Benzofuran-2-yl)-1-phenyl-1H-pyrazol-4-yl)-2-methoxy-6-(4-methoxyphenyl)pyridine-3-carbonitrile] | 428 µM | 322 µM | 256 to 258 °C
CCOc1nc(-c2ccccc2)cc(-c2cn(-c3ccccc3)nc2-c2cc3ccccc3o2)c1C#N [Compound 4b, 4-(3-(Benzofuran-2-yl)-1-phenyl-1H-pyrazol-4-yl)-2-ethoxy-6-phenylpyridine-3-carbonitrile] | 343 µM | 343 µM | 186 to 188 °C
COc1nc(-c2ccccc2)cc(-c2cn(-c3ccccc3)nc2-c2cc3ccccc3o2)c1C#N [Compound 4a, 4-(3-(Benzofuran-2-yl)-1-phenyl-1H-pyrazol-4-yl)-2-methoxy-6-phenylpyridine-3-carbonitrile] | 281 µM | 281 µM | 
